{"source": "paper PMC3156297", "about": "(2011)", "target": "T1, soluble epoxide hydrolase (sEH) (Homo sapiens, UniProt P34913)", "T1 sequence (P34913 1-555)": "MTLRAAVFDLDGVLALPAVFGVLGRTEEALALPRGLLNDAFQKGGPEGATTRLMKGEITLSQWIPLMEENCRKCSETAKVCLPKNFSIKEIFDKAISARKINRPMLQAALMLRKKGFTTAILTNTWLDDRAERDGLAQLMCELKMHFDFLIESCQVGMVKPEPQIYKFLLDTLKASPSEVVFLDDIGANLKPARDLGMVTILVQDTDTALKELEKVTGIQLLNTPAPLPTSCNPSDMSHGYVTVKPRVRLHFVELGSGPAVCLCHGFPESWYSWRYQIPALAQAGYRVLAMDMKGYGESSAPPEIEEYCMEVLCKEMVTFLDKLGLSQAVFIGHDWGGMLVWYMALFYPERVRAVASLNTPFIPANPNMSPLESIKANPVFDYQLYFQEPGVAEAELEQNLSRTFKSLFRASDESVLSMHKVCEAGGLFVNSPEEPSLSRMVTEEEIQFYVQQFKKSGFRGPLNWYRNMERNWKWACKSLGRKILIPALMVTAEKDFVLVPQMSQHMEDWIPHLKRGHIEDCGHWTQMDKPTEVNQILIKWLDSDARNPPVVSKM", "experiment": "recombinant enzyme inhibition", "format": "biochemical", "data": [{"smiles": "O=C(Nc1ccc(Cl)cc1)Nc1ccc(Cl)c(Cl)c1", "note": "[TCC, 3,4,4′-trichlorocarbanilide]", "values": [{"measurement": "Ki", "value": 96, "unit": "nM"}]}]}
